# Laboratory results reported in patent US8003649B2 (AstraZeneca AB, priority 2007, dated 2011).
# Target: T1, Androgen Receptor (AR) (Homo sapiens, UniProt P10275, T878A)
# T1 construct: cell based immuno-fluorescence assay using the LNCaP prostate epithelial cell line; endogenous in cells; host or cells: LNCaP clone FGC (ATCC CRL-1740)
# T1 sequence (P10275 1-920 T878A): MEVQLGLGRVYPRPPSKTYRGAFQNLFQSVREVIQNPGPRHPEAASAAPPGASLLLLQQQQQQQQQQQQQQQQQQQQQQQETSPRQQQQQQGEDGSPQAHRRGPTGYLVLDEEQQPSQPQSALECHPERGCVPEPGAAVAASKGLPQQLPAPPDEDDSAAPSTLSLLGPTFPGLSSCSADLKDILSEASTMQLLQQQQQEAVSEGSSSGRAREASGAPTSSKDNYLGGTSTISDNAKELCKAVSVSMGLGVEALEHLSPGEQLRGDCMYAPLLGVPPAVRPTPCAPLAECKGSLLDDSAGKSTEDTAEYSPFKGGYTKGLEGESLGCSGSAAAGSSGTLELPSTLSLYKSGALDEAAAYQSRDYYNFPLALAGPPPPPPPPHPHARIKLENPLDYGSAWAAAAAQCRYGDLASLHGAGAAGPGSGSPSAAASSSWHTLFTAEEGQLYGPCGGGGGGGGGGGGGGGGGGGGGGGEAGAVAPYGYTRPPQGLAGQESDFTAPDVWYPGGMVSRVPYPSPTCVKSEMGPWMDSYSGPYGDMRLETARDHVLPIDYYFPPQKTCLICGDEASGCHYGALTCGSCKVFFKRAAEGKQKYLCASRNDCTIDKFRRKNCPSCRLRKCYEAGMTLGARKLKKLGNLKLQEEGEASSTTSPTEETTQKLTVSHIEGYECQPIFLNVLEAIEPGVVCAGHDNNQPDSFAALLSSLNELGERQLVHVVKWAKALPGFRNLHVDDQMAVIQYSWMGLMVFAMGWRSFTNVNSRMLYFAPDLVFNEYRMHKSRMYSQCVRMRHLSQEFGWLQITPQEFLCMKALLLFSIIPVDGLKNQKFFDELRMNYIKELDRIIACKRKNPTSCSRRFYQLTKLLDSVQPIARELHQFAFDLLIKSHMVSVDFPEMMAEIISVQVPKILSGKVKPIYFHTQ
# Experiment: LNCaP Androgen Receptor Down-regulation Cell Assay (immunofluorescence end point)
# Assay type: cell-based
# Conditions: LNCaP prostate carcinoma cells, compound incubation 20-22 hours, 50% reduction of the AR signal; read-out: Androgen Receptor Down-regulation Assay (a) IC50/μM
# Method: The ability of compounds to reduce Androgen Receptor (AR) numbers was assessed in a cell based immuno-fluorescence assay using the LNCaP prostate epithelial cell line.
# a) LNCaP Androgen Receptor Down-regulation Cell Assay
# A 5 ml volume of Growth Medium was added to each flask (as above except that 5% (v/v) charcoal stripped FBS (HyClone Code no. SH30068.03) was included instead of 10% (v/v) FBS). Cells were syringed at least twice using a sterile 18G×1.5″ (1.2×40 mm) broad gauge needle and cell density was measured using a haemocytometer.
# Test data reported herein was generated using two different compounds preparation and dosing methods. In method (1) a 10 mM compound stock solution in 100% (v/v) DMSO was serially diluted in 4-fold steps in 100% (v/v) DMSO using a Thermo Scientific Matrix SerialMate. The diluted compounds were then further diluted 1 in 30 in assay media using a Thermo Scientific Matrix PlateMate and a 10 μl aliquot of this dilution was dosed to cells manually using a multi-channel pipette. In method (2) starting with a 10 mM compound stock solution, the Labcyte Echo 550 was used to generate a compound concentration response set diluted in 30 μl of assay media. The Echo 550 is a liquid handler that uses acoustic technology to perform direct microplate-to-microplate transfers of DMSO compound solutions. The system can be programmed to transfer volumes as low as […] in multiple increments between microplates and in so doing generates a serial dilution of compound which is then back-filled to normalise the DMSO concentration across the dilution range. A 10 μl volume of diluted compound is then dosed to cells using a Thermo Scientific Matrix PlateMate.
# Plates were incubated overnight at 37° C., 5% CO2. Wells were then dosed with compound prepared by one of the 2 methods above and further incubated for 20-22 hours at 37° C., 5% CO2. […] This fixative solution was removed and cells were washed with 250 μl of PBS/0.05% (v/v) Tween 20 (PBST) using an automated plate washer. This process was then repeated twice more.
# Immunostaining was performed at room temperature. Cells were permeabilised by the addition of 35 μl of PBS containing 0.5% Tween 20 and incubated for 1 hour at room temperature. Permeabilisation solution was removed and cells were washed with 250 μl of PBST using an automated plate washer. This process was then repeated twice more. 35 μl of Blocking Solution (PBST containing 3% (w/v) Marvel dried skimmed milk (Nestle)) was added to each well and plates were incubated at room temperature for a minimum of 1 hour. […] Then this primary antibody solution was removed from the wells followed by 3×100 μl PBST washes using a plate washer. […] Henceforth, wherever possible, plates were protected from light exposure. The plates were incubated for 1 hour and then the secondary antibody solution was removed from the wells followed by 3×100 ul PBST washes using a plate washer. Then 50 μl of PBST was added to each well and plates were covered with a black plate seal and stored at 4° C. before being read. Plates were read within six hours of completing the immunostaining.
# The Green Fluorescent AR-associated signal in each well was measured using an Acumen Explorer HTS Reader (TTP Labtech Ltd., Cambridge). […] The instrument is a laser-scanning fluorescence microplate cytometer which samples the well at regular intervals and uses threshold algorithms to identify all fluorescent intensities above the solution background without the need to generate and analyse an image. These fluorescent objects can be quantified and provide a measure of the AR levels in cells. Fluorescence dose response data obtained with each compound was exported into a suitable software package (such as Origin) to perform curve fitting analysis. Down-regulation of AR levels was expressed as an IC50 value.
row,SMILES,DC50 [µM]
1,"FC(F)(F)c1cnc(N2CCCN(c3ccc4nnc(C(F)(F)F)n4n3)CC2)c(Cl)c1 [Example 30, 6-[4-[3-chloro-5-(trifluoromethyl)pyridin-2-yl]-1,4-diazepan-1-yl]-3-(trifluoromethyl)-[1,2,4]triazolo[4,3-b]pyridazine]",0.38
2,"COc1nccc(-c2c(-c3ccc(F)cc3)ncn2C2CCN(c3ccc4nnc(C(F)(F)F)n4n3)CC2)n1 [Example 31, 6-[4-[4-(4-fluorophenyl)-5-(2-methoxypyrimidin-4-yl)imidazol-1-yl]piperidin-1-yl]-3-(trifluoromethyl)-[1,2,4]triazolo[4,3-b]pyridazine]",2.1
3,"FC(F)(F)c1nnc2ccc(N3CCCN(Cc4ccccc4Cl)CC3)nn12 [Example 33, 6-[4-[(2-chlorophenyl)methyl]-1,4-diazepan-1-yl]-3-(trifluoromethyl)-[1,2,4]triazolo[4,3-b]pyridazine]",0.68
4,"CCCC(=O)N1CC2CN(c3ccc4nnc(C(F)(F)F)n4n3)CC2C1 (centres unmarked) [Example 34, 1-[2-[3-(trifluoromethyl)-[1,2,4]triazolo[4,3-b]pyridazin-6-yl]-1,3,3a,4,6,6a-hexahydropyrrolo[3,4-c]pyrrol-5-yl]butan-1-one]",20
5,"CC(C)(C)OC(=O)N1[C@@H]2CC[C@H]1CN(c1ccc3nnc(C(F)(F)F)n3n1)C2 [Example 35, tert-butyl (1S,5R)-3-[3-(trifluoromethyl)-[1,2,4]triazolo[4,3-b]pyridazin-6-yl]-3,8-diazabicyclo[3.2.1]octane-8-carboxylate]",3
6,"Cc1cccc(N2CCN(c3ccc4nnc(C(F)(F)F)n4n3)CC2)c1 [Example 36, 6-[4-(3-methylphenyl)piperazin-1-yl]-3-(trifluoromethyl)-[1,2,4]triazolo[4,3-b]pyridazine]",0.99
7,"FC(F)(F)c1nnc2ccc(N3CCN(c4ccccc4Cl)CC3)nn12 [Example 37, 6-[4-(2-chlorophenyl)piperazin-1-yl]-3-(trifluoromethyl)-[1,2,4]triazolo[4,3-b]pyridazine]",1.4
8,"O=C1CCc2ccccc2N1C1CCN(c2ccc3nnc(C(F)(F)F)n3n2)CC1 [Example 40, 1-[1-[3-(trifluoromethyl)-[1,2,4]triazolo[4,3-b]pyridazin-6-yl]piperidin-4-yl]-3,4-dihydroquinolin-2-one]",3.3
9,"FC(F)(F)c1nnc2ccc(N3CCN(Cc4nc5ccccc5o4)CC3)nn12 [Example 49, 6-[4-(1,3-benzoxazol-2-ylmethyl)piperazin-1-yl]-3-(trifluoromethyl)-[1,2,4]triazolo[4,3-b]pyridazine]",3.2
10,"FC(F)(F)c1nnc2ccc(N3CCN(Cc4csnn4)CC3)nn12 [Example 53, 6-[4-(thiadiazol-4-ylmethyl)piperazin-1-yl]-3-(trifluoromethyl)-[1,2,4]triazolo[4,3-b]pyridazine]",7.9
11,"CS(=O)(=O)c1ccccc1CN1CCN(c2ccc3nnc(C(F)(F)F)n3n2)CC1 [Example 57, 6-[4-[(2-methylsulfonylphenyl)methyl]piperazin-1-yl]-3-(trifluoromethyl)-[1,2,4]triazolo[4,3-b]pyridazine]",4.3
12,"FC(F)(F)c1nnc2ccc(N3CCN(Cc4csc5ccccc45)CC3)nn12 [Example 60, 6-[4-(1-benzothiophen-3-ylmethyl)piperazin-1-yl]-3-(trifluoromethyl)-[1,2,4]triazolo[4,3-b]pyridazine]",0.61

# More lines, in order of falling DC50, values ahead:
row,DC50 [µM],SMILES
1,8.8,"FC(F)(F)c1nnc2ccc(N3CCN(Cc4cnccn4)CC3)nn12 [Example 55, 6-[4-(pyrazin-2-ylmethyl)piperazin-1-yl]-3-(trifluoromethyl)-[1,2,4]triazolo[4,3-b]pyridazine]"
2,8.4,"FC(F)(F)c1nnc2ccc(N3CCN(Cc4nccs4)CC3)nn12 [Example 51, 6-[4-(1,3-thiazol-2-ylmethyl)piperazin-1-yl]-3-(trifluoromethyl)-[1,2,4]triazolo[4,3-b]pyridazine]"
3,6.7,"Cn1c(CN2CCN(c3ccc4nnc(C(F)(F)F)n4n3)CC2)nc2ccccc21 [Example 54, 6-[4-[(1-methylbenzimidazol-2-yl)methyl]piperazin-1-yl]-3-(trifluoromethyl)-[1,2,4]triazolo[4,3-b]pyridazine]"
4,5,"O=C1OCc2ccccc2N1C1CCN(c2ccc3nnc(C(F)(F)F)n3n2)CC1 [Example 39, 1-[1-[3-(trifluoromethyl)-[1,2,4]triazolo[4,3-b]pyridazin-6-yl]piperidin-4-yl]-4H-3,1-benzoxazin-2-one]"
5,2.7,"N#Cc1ccccc1CN1CCN(c2ccc3nnc(C(F)(F)F)n3n2)CC1 [Example 59, 2-[[4-[3-(trifluoromethyl)-[1,2,4]triazolo[4,3-b]pyridazin-6-yl]piperazin-1-yl]methyl]benzonitrile]"
6,2.1,"FC(F)(F)c1nnc2ccc(N3CCN(Cc4ccc5ccccc5n4)CC3)nn12 [Example 56, 2-[[4-[3-(trifluoromethyl)-[1,2,4]triazolo[4,3-b]pyridazin-6-yl]piperazin-1-yl]methyl]quinoline]"
7,1.6,"Cc1ccccc1N1CCN(c2ccc3nnc(C(F)(F)F)n3n2)CC1 [Example 32, 6-[4-(2-methylphenyl)piperazin-1-yl]-3-(trifluoromethyl)-[1,2,4]triazolo[4,3-b]pyridazine]"
8,1.5,"N#Cc1cccc(CN2CCN(c3ccc4nnc(C(F)(F)F)n4n3)CC2)c1 [Example 43, 3-[[4-[3-(trifluoromethyl)-[1,2,4]triazolo[4,3-b]pyridazin-6-yl]piperazin-1-yl]methyl]benzonitrile]"
9,1.5,"Cc1ccc(CN2CCN(c3ccc4nnc(C(F)(F)F)n4n3)CC2)cc1 [Example 47, 6-[4-[(4-methylphenyl)methyl]piperazin-1-yl]-3-(trifluoromethyl)-[1,2,4]triazolo[4,3-b]pyridazine]"
10,1.5,"FC(F)(F)c1nnc2ccc(N3CCN(Cc4nc5ccccc5s4)CC3)nn12 [Example 48, 6-[4-(1,3-benzothiazol-2-ylmethyl)piperazin-1-yl]-3-(trifluoromethyl)-[1,2,4]triazolo[4,3-b]pyridazine]"
11,1.4,"FC(F)(F)c1nnc2ccc(N3CCN(Cc4ccnc5ccccc45)CC3)nn12 [Example 50, 4-[[4-[3-(trifluoromethyl)-[1,2,4]triazolo[4,3-b]pyridazin-6-yl]piperazin-1-yl]methyl]quinoline]"
